Measured values reported in US20180155429A1, “TREATMENT OF PD-L1 POSITIVE LUNG CANCER USING AN ANTI-PD-1 ANTIBODY” (Bristol-Myers Squibb Company, priority 2015, published 2018).

Assays:
[1] = tested on: advanced non-squamous (non-SQ) NSCLC; assay: Randomized phase III study of nivolumab versus docetaxel, efficacy (OS, PFS, ORR, DOR, also by tumor PD-L1 expression); assay type: in vivo, human; conditions: for Best overall response CR / Best overall response PD / Best overall response PR / Best overall response SD / Best overall response Unable to determine: Nivo N = 292, Doc N = 290; for mOS: PD-L1+ patients; for 1-year PFS rate / median OS / 1-year OS rate: all randomized pts; for 1-year OS rate: nivolumab 3 mg/kg IV Q2W, docetaxel 75 mg/m^2 IV Q3W; for Median time to response: all responders (NIVO, n = 56; DOC, n = 36); for Ongoing response: at last tumor assessment before censoring, responders
Procedure: (§1) 582 patients were randomized to receive either nivolumab or docetaxel. 292 were randomized to receive nivolumab, and of these, 287 actually received nivolumab. 290 were randomized to receive docetaxel, and of these, 268 actually received docetaxel. Patients were treated with nivolumab at 3 mg/kg IV Q2W until they experienced a progressive disease or unacceptable toxicity. Patients were treated with docetaxel at 75 mg/m^2 IV Q3W until progressive disease or unacceptable toxicity occurred. The primary end point of the study was overall survival (OS). The secondary endpoints of the study were overall response rate (ORR) (Per RECIST v1.1 criteria as determined by the investigator), progression free survival (PFS) (Per RECIST v1.1 criteria as determined by the investigator), efficacy by tumor PD-L1 expression, and disease-related symptom improvement rate by week 12. An overview of the trial can be seen in FIGS. 1A and 1B.
All patients had either stage IIIB or stage IV non-squamous NSCLC and 1 prior PT-DC treatment. Prior maintenance therapy with pemetrexed, bevacizumab or erlotinib was allowed (and was not considered a separate line of therapy). Prior TKI therapy was allowed for a known ALK translocation or EGFR mutation. The ECOG PS was 0-1. Patients were stratified by prior maintenance therapy and line of therapy (second-vs third-line)
In this example, ALK means anaplastic lymphoma kinase; ECOG PS means Eastern Cooperative Oncology Group performance status; EGFR means epidermal growth factor receptor; IV means intravenous; LCSS means Lung Cancer Symptom Scale; ORR means objective response rate; OS=overall survival; PFS=progression-free survival; PD=progressive disease; and TKI means tyrosine kinase inhibitor.
The PD-L1 expression was measured for the patients. The DAKO PD-L1 Assay Analytical Validation and Clinical Sample Testing is described in Table 3.

[2] = Randomized phase III study of nivolumab versus docetaxel, exposure and safety; assay type: in vivo, human; conditions: for Treatment-related deaths: at DBL, treated pts
Procedure: as §1

[3] = cited from earlier work
PD-1 = molecular target: T1, PD-1 (Homo sapiens, UniProt Q15116); conditions: 15 subjects, 0.3 mg/kg to 10 mg/kg, across all doses, cited from earlier work
T1 construct: Receptor-occupancy data from 15 subjects who received 0.3 mg/kg to 10 mg/kg dosing with nivolumab indicate that PD-1 occupancy appears to be dose-independent; endogenous in cells

[4] = all randomized pts (Nivo N = 292, Doc N = 290), RECIST v1.1, investigator

T1 sequence (Q15116 25-288): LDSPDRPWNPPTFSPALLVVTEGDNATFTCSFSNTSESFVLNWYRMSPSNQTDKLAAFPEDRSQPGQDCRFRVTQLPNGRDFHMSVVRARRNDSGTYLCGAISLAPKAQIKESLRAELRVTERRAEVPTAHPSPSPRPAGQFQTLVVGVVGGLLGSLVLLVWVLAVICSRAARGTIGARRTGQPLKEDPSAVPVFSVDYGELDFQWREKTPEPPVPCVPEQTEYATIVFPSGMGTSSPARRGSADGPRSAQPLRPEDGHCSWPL

CC(=O)O[C@@]12CO[C@@H]1C[C@H](O)[C@@]1(C)C(=O)[C@H](O)C3=C(C)[C@@H](OC(=O)[C@H](O)[C@@H](NC(=O)OC(C)(C)C)c4ccccc4)C[C@@](O)([C@@H](OC(=O)c4ccccc4)[C@H]21)C3(C)C [docetaxel, reference compound]
Best overall response CR [1]: (0.3) %
Best overall response PD [1]: (29) %
Best overall response PR [1]: (12) %
Best overall response SD [1]: (42) %
Best overall response Unable to determine [1]: (16) %
mOS ([1]; 1% expression level): 9.0 months
mOS ([1]; 5% expression level): 8.1 months
mOS ([1]; 10% expression level): 8.0 months
Median DOR ([1]; PD-L1 Negative (<1%)): 5.6 mos
ORR ([1]; PD-L1 Negative (<1%)): 15%
Median DOR ([1]; PD-L1 Negative (<5%)): 5.6 mos
ORR ([1]; PD-L1 Negative (<5%)): 14%
Median DOR ([1]; PD-L1 Negative (<10%)): 5.6 mos
ORR ([1]; PD-L1 Negative (<10%)): 14%
Median DOR ([1]; PD-L1 Not quantifiable): 6.6 mos
ORR ([1]; PD-L1 Not quantifiable): 9.1%
Median DOR ([1]; PD-L1 Positive (≥1%)): 5.6 mos
ORR ([1]; PD-L1 Positive (≥1%)): 12%
Median DOR ([1]; PD-L1 Positive (≥5%)): 5.6 mos
ORR ([1]; PD-L1 Positive (≥5%)): 13%
Median DOR ([1]; PD-L1 Positive (≥10%)): 5.6 mos
ORR ([1]; PD-L1 Positive (≥10%)): 13%
1-year PFS rate [1]: 8.1%
median OS [1]: 9.4 months
ORR [1, 4]: 12%
1-year OS rate [1]: 39%
Median DOR ([1]; all responders): 5.6 mos
Median time to response [1]: 2.6 mos
Ongoing response [1]: (14) %
Treatment-related deaths [2]: 0.4^9
Treatment-related select AE: Hypothyroidism ([2]; human, in vivo): 0%
Treatment-related select AE: Pneumonitis ([2]; human, in vivo): 0.4%

nivolumab
tolerated dose ([3]; given intravenously every 2 weeks): up to 10 mg/kg
maximum tolerated dose (MTD) ([3]; nivolumab monotherapy every two weeks, MTD not reached): > 10 mg/kg
Best overall response CR [1]: (1.4) %
Best overall response PD [1]: (44) %
Best overall response PR [1]: (18) %
Best overall response SD [1]: (25) %
Best overall response Unable to determine [1]: (11) %
Estimated odds ratio (95% CI) for ORR ([1]; Nivo vs Doc, P-value 0.0246): 1.7 (1.1, 2.6)
mOS ([1]; 1% expression level): 17.2 months
mOS ([1]; 5% expression level): 18.2 months
mOS ([1]; 10% expression level): 19.4 months
Median DOR ([1]; PD-L1 Negative (<1%)): 18.3 mos
ORR ([1]; PD-L1 Negative (<1%)): 9.3%
Median DOR ([1]; PD-L1 Negative (<5%)): 18.3 mos
ORR ([1]; PD-L1 Negative (<5%)): 10%
Median DOR ([1]; PD-L1 Negative (<10%)): 18.3 mos
ORR ([1]; PD-L1 Negative (<10%)): 11%
Median DOR ([1]; PD-L1 Not quantifiable): 7.3 mos
ORR ([1]; PD-L1 Not quantifiable): 13%
Median DOR ([1]; PD-L1 Positive (≥1%)): 16.0 mos
ORR ([1]; PD-L1 Positive (≥1%)): 31%
Median DOR ([1]; PD-L1 Positive (≥5%)): 16.0 mos
ORR ([1]; PD-L1 Positive (≥5%)): 36%
Median DOR ([1]; PD-L1 Positive (≥10%)): 16.0 mos
ORR ([1]; PD-L1 Positive (≥10%)): 37%
1-year PFS rate [1]: 19%
median OS [1]: 12.2 months
ORR [1, 4]: 19%
1-year OS rate [1]: 51%
Median DOR ([1]; all responders): 17.2 mos
Median time to response [1]: 2.1 mos
Ongoing response [1]: (52) %
reduction in risk of death ([1]; nivolumab in comparison to docetaxel): 27%
HR (risk of death) ([1]; nivolumab in comparison to docetaxel, P=0.0015): 0.73
mean plateau PD-1 occupancy (PD-1; range 59% to 81%): 72%
mean PD-1 occupancy rate (PD-1; range 70% to 97%): 85%
Treatment-related deaths [2]: 0^8
safety profile ([2]; in vivo): favorable vs docetaxel
